Format in all cases: in vivo
Data set [1] relates to directly sowed rice plant. Description: Test Example 3: effect on crop by foliage application, Wagner pot (symbol b). Conditions: application herbicide amount 320 g/ha. The essentials:
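Alluvial soil in a 1/10000-are Wagner pot was flooded to a water depth of 0.1–0.5 cm. Echinochloa crus-galli var. crus-galli, Leptochloa chinensis, Cyperus difformis and rice were sown into it and grown in a greenhouse at 25–30 °C.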

For data set [2], the system named is Monochoria vaginalis. As to the kind of experiment: Test Example 2: herbicidal activity, application during weed generation in submerged conditions (symbol C). Conditions: Table 23; application herbicide amount 320 g/ha; grade 0-5 by criteria of Test Example 1. Put shortly: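 Visual herbicidal ratings, taken three weeks after dosing, reflect post-emergence water-surface application to seedlings at one to two leaves. Conditions: co-sown weeds in alluvial soil flooded to 4 cm, greenhouse held at 25° C. to 30° C.; compound given as water-diluted emulsion at a fixed herbicide amount.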

A further data set concerns Apera spica-venti. Description: Test Example 4: herbicidal effect by soil treatment (symbol L). The following applies: application herbicide amount 320 g/ha. The essentials:
(§1)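 Seeds were sown in sterilized diluvial soil, covered with about 1.5 cm of soil, and the soil surface was sprayed with a water-diluted emulsion of the compound at a predetermined rate. Plants grew in a greenhouse at 25° C. to 30° C.; effects were scored visually 3 weeks after application.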

Data set [3] has as its system Amaranthus retroflexus. As to the kind of experiment: Test Example 4: herbicidal effect by soil treatment (symbol N). The following applies: application herbicide amount 320 g/ha. The essentials: as §1
The subject of data set [4] is Echinochloa crus-galli var. crus-galli. Description: Test Example 5: herbicidal effect by foliage application, plastic box (symbol H). Conditions: 320 g/ha, 3 weeks after application. The essentials:
(§2)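 Greenhouse foliar test: seedlings at 14 days, grown 25° C. to 30° C. in sterilized diluvial soil; compound applied as an aqueous dilution of an emulsion; response read 3 weeks after spraying.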

A further data set relates to rapeseed. Description: Test Example 4: effect on crop by soil treatment (symbol g). The following applies: application herbicide amount 320 g/ha. Put shortly:
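Plants are raised in a greenhouse (25° C. to 30° C.) from spot-sown seed, which sits under about 1.5 cm of sterilized diluvial soil in a box shared with weed species.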

Another data set has as its system Digitaria ciliaris. Description: Test Example 4: herbicidal effect by soil treatment (symbol F). Conditions: application herbicide amount 320 g/ha. Put shortly:
as §1

Data set [5] relates to Amaranthus retroflexus. Description: Test Example 5: herbicidal effect by foliage application, plastic box (symbol N). The following applies: 320 g/ha, 3 weeks after application. Put shortly:
as §2

For a further data set, the system named is Alopecurus myosuroides. As to the kind of experiment: Test Example 5: herbicidal effect by foliage application, plastic box (symbol J). The following applies: 320 g/ha, 3 weeks after application. The essentials:
as §2

A further data set relates to Avena fatua. As to the kind of experiment: Test Example 5: herbicidal effect by foliage application, plastic box (symbol I). The following applies: 320 g/ha, 3 weeks after application. The essentials:
as §2

The test system of the next data set is Cyperus difformis. As to the kind of experiment: Test Example 3: herbicidal effect by foliage application, Wagner pot (symbol E). Conditions: application herbicide amount 320 g/ha. The essentials: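 Herbicidal activity was rated three weeks after a foliar spray of diluted emulsion concentrate, applied at a predetermined dose to plants grown for 14 days from seed in waterlogged alluvial soil within a 25–30 °C greenhouse.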

Data set [6] has as its system Echinochloa oryzacola Vasing. Description: Test Example 1: herbicidal activity, application before weed generation in submerged conditions (symbol A). The following applies: application herbicide amount 320 g/ha. Put shortly:
(§3)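 Greenhouse growth at 25–30 °C lasted 3 weeks after treatment, when each weed was graded 0–5 by herbicidal ratio. Treatment was a diluted emulsion applied to the water surface of 4 cm-submerged alluvial soil on the sowing day.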

Data set [7] has as its system Monochoria vaginalis. Description: Test Example 1: herbicidal activity, application before weed generation in submerged conditions (symbol C). Conditions: application herbicide amount 320 g/ha. The essentials:
as §3

The values below come from patent US11000033B2, “Ketone or oxime compound, and herbicide” (NISSAN CHEMICAL CORPORATION, priority 2014, dated 2021).

`CON=C(C)CC1CC(OC(=O)C(C)(C)Oc2ccc(Cl)cc2)=C(c2c(C)cc(C)cc2C)C1=O` (centres unmarked) [1-051]: the “effect on crop b (directly sowed rice plant), grade 0-5” value in [1] is listed as 5 (Herbicidal ratio of 90% or more (almost completely withered)). The “Herbicidal effect grade, C: Monochoria vaginalis” value in the data set on Monochoria vaginalis [2] was 3 (Herbicidal ratio of 40% or higher and lower than 70%); in the data set on Monochoria vaginalis [7], 0 (Herbicidal ratio of 5% or lower (almost no effect)). Also, the “L (Apera spica-venti) herbicidal effect grade” value in the data set with Apera spica-venti is reported as 5 (Herbicidal ratio of 90% or more (almost completely withered)). In addition, the “N (Amaranthus retroflexus) herbicidal effect grade” value with Amaranthus retroflexus [3] is 4 (Herbicidal ratio of 70% or higher and lower than 90%). In data set [4], the “H: Echinochloa crus-galli var. crus-galli, herbicidal effect grade” value was 5 (Herbicidal ratio of 90% or more (almost completely withered)). For the same compound, in the data set with rapeseed, the “g (rapeseed) effect on crop grade” value is 4 (Herbicidal ratio of 70% or higher and lower than 90%). Also, the “F (Digitaria ciliaris) herbicidal effect grade” value with Digitaria ciliaris is given as 5 (Herbicidal ratio of 90% or more (almost completely withered)). For the same compound, in the data set on Amaranthus retroflexus [5], the “N: Amaranthus retroflexus, herbicidal effect grade” value was 1 (Herbicidal ratio of 5% or higher and lower than 20%). In addition, in the data set with Alopecurus myosuroides, the “J: Alopecurus myosuroides, herbicidal effect grade” value is 5 (Herbicidal ratio of 90% or more (almost completely withered)). Further, the “I: Avena fatua, herbicidal effect grade” value with Avena fatua was 5 (Herbicidal ratio of 90% or more (almost completely withered)). In addition, in the data set with Cyperus difformis, the “herbicidal effect on E, grade 0-5” value was 5 (Herbicidal ratio of 90% or more (almost completely withered)). Moreover, the “Herbicidal effect grade, A: Echinochloa oryzacola Vasing.” value in [6] is reported as 5 (Herbicidal ratio of 90% or more (almost completely withered)).
`CC(CC1CC(O)=C(c2c(C)cc(C)cc2C)C1=O)=NOCc1ccccc1F` (centres unmarked) [1-026]: in data set [1], the “effect on crop b (directly sowed rice plant), grade 0-5” value is listed as 5 (Herbicidal ratio of 90% or more (almost completely withered)). The “Herbicidal effect grade, C: Monochoria vaginalis” value is 3 (Herbicidal ratio of 40% or higher and lower than 70%) in the data set on Monochoria vaginalis [2]; 5 (Herbicidal ratio of 90% or more (almost completely withered)) in the data set on Monochoria vaginalis [7]. In the data set with Apera spica-venti, the “L (Apera spica-venti) herbicidal effect grade” value is on record as 5 (Herbicidal ratio of 90% or more (almost completely withered)). In addition, the “N (Amaranthus retroflexus) herbicidal effect grade” value with Amaranthus retroflexus [3] is recorded as 0 (Herbicidal ratio of 5% or lower (almost no effect)). In data set [4], the “H: Echinochloa crus-galli var. crus-galli, herbicidal effect grade” value was 4 (Herbicidal ratio of 70% or higher and lower than 90%). In addition, the “g (rapeseed) effect on crop grade” value with rapeseed was 3 (Herbicidal ratio of 40% or higher and lower than 70%). In addition, the “F (Digitaria ciliaris) herbicidal effect grade” value in the data set with Digitaria ciliaris is 5 (Herbicidal ratio of 90% or more (almost completely withered)). Further, in the data set with Amaranthus retroflexus [5], the “N: Amaranthus retroflexus, herbicidal effect grade” value was 0 (Herbicidal ratio of 5% or lower (almost no effect)). Moreover, the “J: Alopecurus myosuroides, herbicidal effect grade” value in the data set on Alopecurus myosuroides is given as 5 (Herbicidal ratio of 90% or more (almost completely withered)). For the same compound, in the data set on Avena fatua, the “I: Avena fatua, herbicidal effect grade” value was 1 (Herbicidal ratio of 5% or higher and lower than 20%). Besides, the “herbicidal effect on E, grade 0-5” value with Cyperus difformis was 5 (Herbicidal ratio of 90% or more (almost completely withered)). Further, in data set [6], the “Herbicidal effect grade, A: Echinochloa oryzacola Vasing.” value is listed as 5 (Herbicidal ratio of 90% or more (almost completely withered)).
